Test results: ChEMBL document CHEMBL1201862, “PubChem BioAssay data set” (2004)
Active and inactive are the calls of the source.

Each molecule was assayed against T1, Corticotropin-releasing factor receptor 2/Corticotropin-releasing factor-binding protein (Homo sapiens, UniProt P24387+Q13324) (assay: activators of CRF receptor 2 with binding protein – uHTS hits, confirmation (AID 602473)). Conditions: read-out: EC50_Mean.
T1 sequence (Q13324 whole entry): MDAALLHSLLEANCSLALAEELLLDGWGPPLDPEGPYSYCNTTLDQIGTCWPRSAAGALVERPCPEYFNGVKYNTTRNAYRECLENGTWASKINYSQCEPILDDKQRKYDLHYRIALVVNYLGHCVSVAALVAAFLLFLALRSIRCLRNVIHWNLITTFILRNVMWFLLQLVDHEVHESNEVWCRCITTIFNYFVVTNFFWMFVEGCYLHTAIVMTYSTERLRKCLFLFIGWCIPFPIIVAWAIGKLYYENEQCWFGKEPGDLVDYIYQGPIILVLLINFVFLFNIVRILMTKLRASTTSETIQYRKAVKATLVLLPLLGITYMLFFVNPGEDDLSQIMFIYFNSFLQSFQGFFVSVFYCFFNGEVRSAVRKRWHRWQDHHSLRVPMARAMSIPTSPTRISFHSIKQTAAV
T1 sequence (P24387 whole entry): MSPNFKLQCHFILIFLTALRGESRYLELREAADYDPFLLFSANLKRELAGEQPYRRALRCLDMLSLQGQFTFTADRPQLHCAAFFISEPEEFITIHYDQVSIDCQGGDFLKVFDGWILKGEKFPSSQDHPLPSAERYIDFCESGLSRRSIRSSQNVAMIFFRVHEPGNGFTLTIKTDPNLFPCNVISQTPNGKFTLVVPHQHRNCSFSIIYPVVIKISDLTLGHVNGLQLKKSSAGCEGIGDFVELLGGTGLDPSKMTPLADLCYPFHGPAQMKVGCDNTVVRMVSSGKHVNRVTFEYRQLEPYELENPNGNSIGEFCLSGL
Format: functional

Row | EC50 | SMILES
1 | > 53 µM (inactive) | COCCn1c(=N)c(C(=O)NCc2ccco2)cc2c(=O)n3cc(C)ccc3nc21
2 | > 53 µM (inactive) | COC(=O)Cc1ccc(NC(=S)NCCC(C)C)cc1
3 | > 53 µM (inactive) | O=C(CCc1ccccc1)Nc1c(F)cccc1F
4 | > 53 µM (inactive) | O=C(NCc1ccncc1)c1cc(F)c(F)cc1Cl
5 | > 53 µM (inactive) | Cc1cccc(C)c1N1CCN(C(=O)c2ccc3c(c2)OCO3)CC1
6 | > 53 µM (inactive) | Clc1ccc2nncn2n1
7 | > 53 µM (inactive) | Nc1ncnc(NNC(=O)CNC(=O)c2c(F)cccc2Cl)c1[N+](=O)[O-]
8 | > 53 µM (inactive) | S=C(Nc1ccc2c(c1)OCO2)Nc1ccccc1Cl
9 | > 53 µM (inactive) | Cc1cc(/C=N/NC(=O)c2ccoc2C)cc(C)c1O
10 | > 53 µM (inactive) | Cc1cc(C)c2c(CC(=O)Nc3nccs3)coc2c1
11 | > 53 µM (inactive) | COc1cc(C2C(C#N)=C(N)Oc3[nH]nc(-c4ccccn4)c32)cc(OC)c1OC (stereo not given)

Each molecule was assayed against Cytochrome P450 2D6 (Homo sapiens, UniProt P10635). Conditions: not given.
Sequence of Cytochrome P450 2D6 (P10635 whole entry): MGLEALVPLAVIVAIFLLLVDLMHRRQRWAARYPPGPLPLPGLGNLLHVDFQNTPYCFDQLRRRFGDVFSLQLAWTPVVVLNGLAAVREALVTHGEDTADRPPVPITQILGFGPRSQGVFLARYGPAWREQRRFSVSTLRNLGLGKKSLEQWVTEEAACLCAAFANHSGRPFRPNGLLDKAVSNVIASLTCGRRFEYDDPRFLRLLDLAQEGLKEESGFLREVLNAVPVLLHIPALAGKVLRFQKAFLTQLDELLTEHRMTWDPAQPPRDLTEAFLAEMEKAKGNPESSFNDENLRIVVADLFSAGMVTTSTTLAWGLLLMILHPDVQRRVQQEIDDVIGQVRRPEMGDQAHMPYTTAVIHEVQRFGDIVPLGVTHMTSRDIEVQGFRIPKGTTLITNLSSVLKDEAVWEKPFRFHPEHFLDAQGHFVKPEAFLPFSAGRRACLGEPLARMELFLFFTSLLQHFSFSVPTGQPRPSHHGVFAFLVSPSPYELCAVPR

Row | AC50 | SMILES
12 | 28.2 µM (inconclusive) | C/C(=N\NC(=O)c1cccc(Cl)c1)c1cccc(NC(=O)C(C)C)c1
13 | 7.94 µM (inconclusive) | COc1ccccc1CNc1nc(-c2c(C)noc2C)nc2ccccc12
14 | 10 µM (inconclusive) | CC[C@]1(c2ncc[nH]2)Cc2ccccc2O1
15 | 25.1 µM (inconclusive) | Cc1nn(CC(=O)NCc2ccccc2Cl)c(C)c1[N+](=O)[O-]
16 | 39.8 µM (inconclusive) | COc1cccc(-c2cncnc2NCc2ccccc2)c1

Each molecule was assayed against Cytochrome P450 2C19 (Homo sapiens, UniProt P33261) (assay: Cytochrome panel assay with activity outcomes. Panel member name: p450-cyp2c19 Compounds with AC50 equal or less than 10 uM are considered active). Conditions: read-out: AC50.
Sequence of Cytochrome P450 2C19 (P33261 whole entry): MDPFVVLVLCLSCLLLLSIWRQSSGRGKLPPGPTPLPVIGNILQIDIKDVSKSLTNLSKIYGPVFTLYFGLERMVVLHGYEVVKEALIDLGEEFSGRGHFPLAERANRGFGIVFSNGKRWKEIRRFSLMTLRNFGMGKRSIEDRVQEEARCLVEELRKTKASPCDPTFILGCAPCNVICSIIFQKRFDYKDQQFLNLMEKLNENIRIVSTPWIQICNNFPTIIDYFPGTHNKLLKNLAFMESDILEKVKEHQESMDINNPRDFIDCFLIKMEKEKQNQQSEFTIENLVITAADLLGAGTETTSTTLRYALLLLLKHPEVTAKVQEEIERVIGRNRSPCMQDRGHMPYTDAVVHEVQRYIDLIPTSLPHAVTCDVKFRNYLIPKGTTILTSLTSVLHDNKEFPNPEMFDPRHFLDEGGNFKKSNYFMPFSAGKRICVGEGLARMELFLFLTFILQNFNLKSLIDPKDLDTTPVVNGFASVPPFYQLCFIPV
Format: functional

Row | AC50 | SMILES
17 | 1.58 µM (inconclusive) | COc1ccccc1CNc1nc(-c2c(C)noc2C)nc2ccccc12
18 | 7.94 µM (inconclusive) | N[C@@H](Cc1cc(-c2ccc(Cl)cc2Cl)cc(CP(=O)(O)O)c1O)C(=O)O
19 | 5.01 µM (inconclusive) | O=C(N/C(=C\c1cccs1)C(=O)N1CCCCCC1)c1ccccc1
20 | 5.01 µM (inconclusive) | CCC1NC(=S)N(C2CCCCC2)C1=O (stereo not given)

What follows are molecules tested against T2, RNA-binding protein pos-1 (Caenorhabditis elegans, UniProt G5EF15) (assay: disruptors of C. elegans POS-1 RNA interaction – biochemical, fluorescence polarization, dose response (AID 1964)). Conditions: not given.
T2 sequence (G5EF15 whole entry): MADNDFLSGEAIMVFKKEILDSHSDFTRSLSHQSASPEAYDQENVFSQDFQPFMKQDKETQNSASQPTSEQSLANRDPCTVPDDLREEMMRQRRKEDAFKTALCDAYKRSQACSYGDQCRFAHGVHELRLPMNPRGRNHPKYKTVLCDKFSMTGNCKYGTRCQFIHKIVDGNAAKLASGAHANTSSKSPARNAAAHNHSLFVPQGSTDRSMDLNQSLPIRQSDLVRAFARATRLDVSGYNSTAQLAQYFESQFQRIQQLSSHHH

Row | EC50 | SMILES
21 | 11.6 µM (active) | O=c1[nH]n(-c2ncnc3c2cnn3-c2ccccc2)c(=O)c2ccccc12
22 | > 300 µM (not active) | CCC(Oc1ccccc1)C(=O)Nc1ccccn1 (stereo not given)
23 | 0.548 µM (active) | Nc1ncnc(NNC(=O)CNC(=O)c2c(F)cccc2Cl)c1[N+](=O)[O-]

What follows are molecules tested against Cytochrome P450 2C9 (Homo sapiens, UniProt P11712). Conditions: not given.
Sequence of Cytochrome P450 2C9 (P11712 whole entry): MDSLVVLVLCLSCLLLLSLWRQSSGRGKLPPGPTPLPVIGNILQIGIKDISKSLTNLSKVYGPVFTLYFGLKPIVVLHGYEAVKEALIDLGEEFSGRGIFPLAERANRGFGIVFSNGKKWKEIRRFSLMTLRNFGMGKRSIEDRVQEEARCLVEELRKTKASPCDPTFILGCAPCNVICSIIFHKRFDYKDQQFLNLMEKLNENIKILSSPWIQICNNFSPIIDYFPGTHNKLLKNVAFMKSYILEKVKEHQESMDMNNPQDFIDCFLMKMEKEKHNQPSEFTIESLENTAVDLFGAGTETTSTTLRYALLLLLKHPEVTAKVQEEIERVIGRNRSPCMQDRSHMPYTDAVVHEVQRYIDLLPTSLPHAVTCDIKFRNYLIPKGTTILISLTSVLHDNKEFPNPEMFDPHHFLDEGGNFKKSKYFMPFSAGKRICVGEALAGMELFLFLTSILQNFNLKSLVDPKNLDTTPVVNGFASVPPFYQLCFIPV

Row | AC50 | SMILES
24 | 1 µM (inconclusive) | COc1ccccc1CNc1nc(-c2c(C)noc2C)nc2ccccc12
25 | 25.1 µM (inconclusive) | CC[C@]1(c2ncc[nH]2)Cc2ccccc2O1
26 | 20 µM (inconclusive) | N[C@@H](Cc1cc(-c2ccc(Cl)cc2Cl)cc(CP(=O)(O)O)c1O)C(=O)O
27 | 12.6 µM (inconclusive) | Cc1nn(CC(=O)NCc2ccccc2Cl)c(C)c1[N+](=O)[O-]
28 | 31.6 µM (inconclusive) | O=C(N/C(=C\c1cccs1)C(=O)N1CCCCCC1)c1ccccc1
29 | 15.8 µM (inconclusive) | CCC1NC(=S)N(C2CCCCC2)C1=O (stereo not given)
30 | 0.158 µM (inconclusive) | COc1cccc(-c2cncnc2NCc2ccccc2)c1

What follows are molecules tested against T3, Polyadenylate-binding protein 1 (Homo sapiens, UniProt P11940) (assay: MLLE binding blockers, Cy5 peptide tracer – biochemical, fluorescence polarization, Cy5-PAM2 peptide, secondary, miRNA deadenylation inhibitor project, dose response (AID 602260)). Conditions: read-out: IC50_Mean.
T3 sequence (P11940 whole entry): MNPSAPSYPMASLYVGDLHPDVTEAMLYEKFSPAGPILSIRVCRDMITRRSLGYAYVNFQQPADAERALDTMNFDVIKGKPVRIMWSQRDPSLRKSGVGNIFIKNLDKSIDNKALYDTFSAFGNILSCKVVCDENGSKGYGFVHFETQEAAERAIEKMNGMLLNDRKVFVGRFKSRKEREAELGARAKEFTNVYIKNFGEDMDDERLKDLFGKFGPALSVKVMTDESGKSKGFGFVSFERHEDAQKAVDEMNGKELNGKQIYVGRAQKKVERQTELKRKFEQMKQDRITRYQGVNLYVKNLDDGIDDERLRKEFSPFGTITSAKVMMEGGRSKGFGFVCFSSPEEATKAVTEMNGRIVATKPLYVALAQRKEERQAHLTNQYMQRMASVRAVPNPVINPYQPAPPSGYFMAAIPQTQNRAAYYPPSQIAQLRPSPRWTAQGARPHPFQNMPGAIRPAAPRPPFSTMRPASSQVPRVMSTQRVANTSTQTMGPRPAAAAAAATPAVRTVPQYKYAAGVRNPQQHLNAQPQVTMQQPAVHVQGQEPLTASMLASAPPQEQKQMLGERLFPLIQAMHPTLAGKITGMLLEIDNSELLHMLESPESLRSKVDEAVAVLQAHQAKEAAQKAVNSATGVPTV
Format: functional

Row | IC50 | SMILES
31 | 33.2 µM (inactive) | COCCn1c(=N)c(C(=O)NCc2ccco2)cc2c(=O)n3cc(C)ccc3nc21

What follows are molecules tested against T1, Corticotropin-releasing factor receptor 2/Corticotropin-releasing factor-binding protein (assay: Dose Response confirmation of uHTS hits for small molecule antagonists of the CRF-binding protein and CRF-R2 receptor complex.). Conditions: read-out: IC50_Mean.
Format: functional

Row | IC50 | SMILES
32 | > 47.1 µM (inactive) | COCCn1c(=N)c(C(=O)NCc2ccco2)cc2c(=O)n3cc(C)ccc3nc21
33 | > 47.1 µM (inactive) | COC(=O)Cc1ccc(NC(=S)NCCC(C)C)cc1
34 | > 47.1 µM (inactive) | O=C(CCc1ccccc1)Nc1c(F)cccc1F
35 | > 47.1 µM (inactive) | O=C(NCc1ccncc1)c1cc(F)c(F)cc1Cl
36 | > 47.1 µM (inactive) | Cc1cccc(C)c1N1CCN(C(=O)c2ccc3c(c2)OCO3)CC1
37 | > 47.1 µM (inactive) | Clc1ccc2nncn2n1
38 | > 47.1 µM (inactive) | Nc1ncnc(NNC(=O)CNC(=O)c2c(F)cccc2Cl)c1[N+](=O)[O-]
39 | > 47.1 µM (inactive) | S=C(Nc1ccc2c(c1)OCO2)Nc1ccccc1Cl
40 | > 47.1 µM (inactive) | Cc1cc(/C=N/NC(=O)c2ccoc2C)cc(C)c1O
41 | > 47.1 µM (inactive) | Cc1cc(C)c2c(CC(=O)Nc3nccs3)coc2c1
42 | > 47.1 µM (inactive) | COc1cc(C2C(C#N)=C(N)Oc3[nH]nc(-c4ccccn4)c32)cc(OC)c1OC (stereo not given)

The molecules below were run against Cytochrome P450 3A4 (Homo sapiens, UniProt P08684). Conditions: not given.
Sequence of Cytochrome P450 3A4 (P08684 whole entry): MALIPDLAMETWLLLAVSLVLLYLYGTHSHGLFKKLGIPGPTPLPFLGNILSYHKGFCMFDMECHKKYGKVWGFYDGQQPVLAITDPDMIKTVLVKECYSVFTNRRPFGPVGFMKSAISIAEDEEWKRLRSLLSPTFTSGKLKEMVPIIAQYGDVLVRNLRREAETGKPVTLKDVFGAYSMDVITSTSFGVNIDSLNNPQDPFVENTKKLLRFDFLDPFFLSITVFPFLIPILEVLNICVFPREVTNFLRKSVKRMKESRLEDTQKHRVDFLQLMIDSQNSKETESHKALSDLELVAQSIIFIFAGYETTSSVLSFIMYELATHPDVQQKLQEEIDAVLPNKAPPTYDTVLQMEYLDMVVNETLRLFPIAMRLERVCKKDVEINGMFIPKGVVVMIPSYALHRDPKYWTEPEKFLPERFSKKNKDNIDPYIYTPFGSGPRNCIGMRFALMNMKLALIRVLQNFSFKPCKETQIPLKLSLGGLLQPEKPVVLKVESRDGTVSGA

Row | AC50 | SMILES
43 | 15.8 µM (inconclusive) | C/C(=N\NC(=O)c1cccc(Cl)c1)c1cccc(NC(=O)C(C)C)c1
44 | 14.1 µM (inconclusive) | Cc1nn(CC(=O)NCc2ccccc2Cl)c(C)c1[N+](=O)[O-]

The molecules below were run against T4, Zinc finger protein mex-5 (Caenorhabditis elegans, UniProt Q9XUB2) (assay: potency of MEX-5 RNA-binding blockers – biochemical, C. elegans, fluorescence polarization, dose response (AID 1960)). Conditions: not given.
T4 sequence (Q9XUB2 whole entry): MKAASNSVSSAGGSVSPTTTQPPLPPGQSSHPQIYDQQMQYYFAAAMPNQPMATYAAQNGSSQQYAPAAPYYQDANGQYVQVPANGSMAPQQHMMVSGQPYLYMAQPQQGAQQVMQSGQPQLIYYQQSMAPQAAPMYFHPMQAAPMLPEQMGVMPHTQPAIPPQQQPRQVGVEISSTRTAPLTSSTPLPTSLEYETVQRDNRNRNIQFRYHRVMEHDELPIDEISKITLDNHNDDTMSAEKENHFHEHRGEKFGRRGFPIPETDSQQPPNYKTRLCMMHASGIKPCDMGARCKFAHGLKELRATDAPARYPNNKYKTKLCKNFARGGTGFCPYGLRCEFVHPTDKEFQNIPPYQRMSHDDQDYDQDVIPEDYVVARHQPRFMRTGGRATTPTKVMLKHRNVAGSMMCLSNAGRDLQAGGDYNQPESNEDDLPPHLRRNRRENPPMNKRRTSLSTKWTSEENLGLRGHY

Row | EC50 | SMILES
45 | 7.26 µM (active) | O=c1[nH]n(-c2ncnc3c2cnn3-c2ccccc2)c(=O)c2ccccc12
46 | > 300 µM (not active) | CCC(Oc1ccccc1)C(=O)Nc1ccccn1 (stereo not given)
47 | 0.241 µM (active) | Nc1ncnc(NNC(=O)CNC(=O)c2c(F)cccc2Cl)c1[N+](=O)[O-]

The molecules below were run against T3, Polyadenylate-binding protein 1 (assay: MLLE domain peptide-binding blockers, IC50 – biochemical, fluorescence polarization, FITC-PAM2 peptide, dose response (AID 602259)). Conditions: read-out: IC50_Mean.
Format: functional

Row | IC50 | SMILES
48 | 16.7 µM (active) | COCCn1c(=N)c(C(=O)NCc2ccco2)cc2c(=O)n3cc(C)ccc3nc21

Each molecule was assayed against T5, Cytochrome P450 1A2 (Homo sapiens, UniProt P05177). Conditions: not given.
T5 sequence (P05177 whole entry): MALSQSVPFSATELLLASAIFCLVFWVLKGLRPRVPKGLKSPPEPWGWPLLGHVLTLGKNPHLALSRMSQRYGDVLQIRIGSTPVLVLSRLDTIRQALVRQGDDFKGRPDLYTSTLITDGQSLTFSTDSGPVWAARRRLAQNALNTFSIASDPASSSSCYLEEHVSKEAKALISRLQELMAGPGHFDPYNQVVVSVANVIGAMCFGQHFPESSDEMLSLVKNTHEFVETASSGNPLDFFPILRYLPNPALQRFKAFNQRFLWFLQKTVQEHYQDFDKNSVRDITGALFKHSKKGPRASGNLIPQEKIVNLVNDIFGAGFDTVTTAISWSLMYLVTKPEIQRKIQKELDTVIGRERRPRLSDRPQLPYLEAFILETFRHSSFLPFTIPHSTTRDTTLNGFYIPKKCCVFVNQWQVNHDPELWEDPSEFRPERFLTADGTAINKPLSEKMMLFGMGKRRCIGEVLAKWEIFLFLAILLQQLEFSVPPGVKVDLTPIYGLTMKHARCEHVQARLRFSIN

Row | AC50 | SMILES
49 | 20 µM (inconclusive) | N[C@@H](Cc1cc(-c2ccc(Cl)cc2Cl)cc(CP(=O)(O)O)c1O)C(=O)O
50 | 12.6 µM (inconclusive) | Cc1nn(CC(=O)NCc2ccccc2Cl)c(C)c1[N+](=O)[O-]
